Source: PubChem BioAssay (NCI)
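Interpolation was linear, between the two tested concentrations surrounding the appropriate level; five concentrations were tested over 48 hours in 96-well plates. Definition used: TGI = concentration required for complete inhibition of growth.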

What was measured:
Experiment in all cases: growth of human tumour cells (NCI), 48 h
[1] = tested on: ACHN renal
[2] = tested on: CCRF-CEM leukemia
[3] = tested on: COLO 205 colon
[4] = tested on: DMS 114 small cell lung
[5] = tested on: HCC-2998 colon
[6] = tested on: HCT-116 colon
[7] = tested on: HOP-62 NSCLC
[8] = tested on: HOP-92 NSCLC
[9] = tested on: HT29 colon
[10] = tested on: IGROV1 ovarian
[11] = tested on: K-562 leukemia
[12] = tested on: KM12 colon
[13] = tested on: LXFL 529 NSCLC
[14] = tested on: M14 melanoma
[15] = tested on: M19-MEL melanoma
[16] = tested on: MALME-3M melanoma
[17] = tested on: MOLT-4 leukemia
[18] = tested on: NCI-H23 lung
[19] = tested on: NCI-H460 lung
[20] = tested on: NCI-H522 lung
[21] = tested on: OVCAR-3 ovarian
[22] = tested on: OVCAR-4 ovarian
[23] = tested on: RPMI-8226 leukemia
[24] = tested on: RXF 393 renal
[25] = tested on: SF-268 CNS
[26] = tested on: SF-295 CNS
[27] = tested on: SF-539 CNS
[28] = tested on: SK-MEL-2 melanoma
[29] = tested on: SK-MEL-28 melanoma
[30] = tested on: SK-OV-3 ovarian
[31] = tested on: SNB-19 CNS
[32] = tested on: SNB-75 CNS
[33] = tested on: SNB-78 CNS
[34] = tested on: UACC-257 melanoma
[35] = tested on: UACC-62 melanoma
[36] = tested on: UO-31 renal
[37] = tested on: A549 NSCLC
[38] = tested on: DMS 273 small cell lung
[39] = tested on: EKVX NSCLC
[40] = tested on: HCT-15 colon
[41] = tested on: HL-60(TB) leukemia
[42] = tested on: HOP-18 NSCLC
[43] = tested on: KM20L2 colon
[44] = tested on: LOX IMVI melanoma
[45] = tested on: NCI-H226 lung
[46] = tested on: OVCAR-5 ovarian
[47] = tested on: OVCAR-8 ovarian
[48] = tested on: SK-MEL-5 melanoma
[49] = tested on: SN12C renal
[50] = tested on: SR leukemia
[51] = tested on: SW-620 colon
[52] = tested on: TK-10 renal
[53] = tested on: U251 CNS

CCN(CC)CCN=Cc1c(O)c(O)c(C(C)C)c2cc(C)c(-c3c(C)cc4c(C(C)C)c(O)c(O)c(C=NCCN(CC)CC)c4c3O)c(O)c12
TGI [1]: 8.37 µM
TGI [2]: 1.45 µM
TGI [3]: 14.5 µM
TGI [4]: 3.76 µM
TGI [5]: 9.62 µM
TGI [6]: 6.02 µM
TGI [7]: 8.13 µM
TGI [8]: 7.96 µM
TGI [9]: 3.83 µM
TGI [10]: 12.5 µM
TGI [11]: 3 µM
TGI [12]: 3.92 µM
TGI [13]: 3.11 µM
TGI [14]: 4.06 µM
TGI [15]: 14.1 µM
TGI [16]: 17 µM
TGI [17]: 4.36 µM
TGI [18]: 8.04 µM
TGI [19]: 13.7 µM
TGI [20]: 3.4 µM
TGI [21]: 4.61 µM
TGI [22]: 10.1 µM
TGI [23]: 6.16 µM
TGI [24]: 5.31 µM
TGI [25]: 34.6 µM
TGI [26]: 4.45 µM
TGI [27]: 5.65 µM
TGI [28]: 5.17 µM
TGI [29]: 12.5 µM
TGI [30]: 12.4 µM
TGI [31]: 8.86 µM
TGI [32]: 22.6 µM
TGI [33]: 5.6 µM
TGI [34]: 18.8 µM
TGI [35]: 6.03 µM
TGI [36]: 8.8 µM

Cc1cc(=O)[nH]c(NN2C(Cl)C(=O)C2c2cccc([N+](=O)[O-])c2)n1 (stereo not drawn)
TGI [37]: > 100 µM
TGI [1]: > 100 µM
TGI [2]: 10.3 µM
TGI [3]: 51.6 µM
TGI [4]: 55.4 µM
TGI [38]: 31.2 µM
TGI [39]: > 100 µM
TGI [5]: 36.8 µM
TGI [6]: 49.9 µM
TGI [40]: 31.5 µM
TGI [41]: 36.8 µM
TGI [42]: 78 µM
TGI [7]: > 100 µM
TGI [8]: 34.1 µM
TGI [9]: 49.9 µM
TGI [11]: 55.3 µM
TGI [12]: 80.9 µM
TGI [43]: > 100 µM
TGI [44]: 26.9 µM
TGI [13]: 29.9 µM
TGI [14]: 32.2 µM
TGI [15]: 49.1 µM
TGI [17]: 44.9 µM
TGI [45]: 46.9 µM
TGI [18]: 52.4 µM
TGI [19]: > 100 µM
TGI [21]: 32.3 µM
TGI [22]: 57 µM
TGI [46]: > 100 µM
TGI [47]: > 100 µM
TGI [23]: 40.3 µM
TGI [24]: 22.5 µM
TGI [25]: > 100 µM
TGI [28]: 36.2 µM
TGI [29]: 47.2 µM
TGI [48]: 33.5 µM
TGI [49]: 37.6 µM
TGI [31]: > 100 µM
TGI [32]: > 100 µM
TGI [33]: > 100 µM
TGI [50]: 57.8 µM
TGI [51]: > 100 µM
TGI [52]: > 100 µM
TGI [53]: 47.4 µM
TGI [34]: > 100 µM
TGI [35]: 42.5 µM
TGI [36]: > 100 µM
